A short description of the data set: Gamma scintigraphy studies of stavudine absorption. The data set is classed as in vivo. The protocol:
It has been found in gamma scintigraphy studies that stavudine is well absorbed in the upper intestine. The absorption in the colon is approximately one half that of the small intestine. The optimal formulation would be designed to release approximately 40% of the stavudine in four hours and the remainder over the next twelve to twenty hours. A 100 mg. extended dosage form of stavudine, therefore, would be designed to have the same bioavailability as the commercial 40 mg. immediate release capsules given twice daily. […] A problem in the formulation of a suitable extended dosage form of stavudine is its sensitivity to moisture that causes it to hydrolyze, primarily into thymine. This moisture sensitivity has not been a problem with the commercial non-sustained release dosage form of stavudine because it is a dry granulation that is filled into hard gelatin capsules. However, sustained release dosage forms conventionally require different compounding procedures typically including a granulation step involving an aqueous medium. […] In accordance with the present invention, a method has been found whereby stavudine can be successfully compounded into an extended release formulation utilizing conventional techniques without appreciable loss of potency due to hydrolysis.

We go through 1 compound from patent US7135465B2, “Sustained release beadlets containing stavudine” (Bristol-Myers Squibb Company, priority 2000, dated 2006).

Regarding `Cc1cn([C@H]2C=C[C@@H](CO)O2)c(=O)[nH]c1=O` [stavudine, 3′-deoxy-2′,3′-didehydrothymidine], the “absorption in the colon relative to that of the small intestine” value is reported as “approximately one half” and the “absorption in the upper intestine” value is recorded as “well absorbed”.
